Measurements taken from PMC10174618, “Monoterpenoid aryl hydrocarbon receptor allosteric antagonists protect against ultraviolet skin damage in female mice” (Nature Communications, 2023).

Columns and labels:
Assay in all cases: biochemical
Parameters in all cases: KINOMEscan scanMAX active site-directed competition binding assay, percent of control, 468 kinases
Conditions in all cases: competition binding, percent of control
LYN = LYN (Homo sapiens, UniProt P07948)
How it was run: (§1)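 Single-concentration screen (100 μM S-carvone) in a competition binding panel of 468 human kinases (KINOMEscan scanMAX); results given as percent of control, hit cutoff 35%.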

RIOK2 = RIOK2 (Homo sapiens, UniProt Q9BVS4)
How it was run: as §1

WNK1 = WNK1 (Homo sapiens, UniProt Q9H4A3)
How it was run: as §1

PIP5K2B = molecular target: T1, PIP5K2B (Homo sapiens, UniProt P78356)
T1 construct: gene PIP4K2B
How it was run: as §1

DMPK2 = molecular target: T2, DMPK2 (Homo sapiens, UniProt Q6DT37)
T2 construct: gene CDC42BPG
How it was run: as §1

CTK = molecular target: T3, CTK (Homo sapiens, UniProt P42679)
T3 construct: gene MATK
How it was run: as §1

CAMK1D = CAMK1D (Homo sapiens, UniProt Q8IU85)
How it was run: as §1

PIK3C2B = PIK3C2B (Homo sapiens, UniProt O00750)
Sequence of PIK3C2B (O00750 whole entry): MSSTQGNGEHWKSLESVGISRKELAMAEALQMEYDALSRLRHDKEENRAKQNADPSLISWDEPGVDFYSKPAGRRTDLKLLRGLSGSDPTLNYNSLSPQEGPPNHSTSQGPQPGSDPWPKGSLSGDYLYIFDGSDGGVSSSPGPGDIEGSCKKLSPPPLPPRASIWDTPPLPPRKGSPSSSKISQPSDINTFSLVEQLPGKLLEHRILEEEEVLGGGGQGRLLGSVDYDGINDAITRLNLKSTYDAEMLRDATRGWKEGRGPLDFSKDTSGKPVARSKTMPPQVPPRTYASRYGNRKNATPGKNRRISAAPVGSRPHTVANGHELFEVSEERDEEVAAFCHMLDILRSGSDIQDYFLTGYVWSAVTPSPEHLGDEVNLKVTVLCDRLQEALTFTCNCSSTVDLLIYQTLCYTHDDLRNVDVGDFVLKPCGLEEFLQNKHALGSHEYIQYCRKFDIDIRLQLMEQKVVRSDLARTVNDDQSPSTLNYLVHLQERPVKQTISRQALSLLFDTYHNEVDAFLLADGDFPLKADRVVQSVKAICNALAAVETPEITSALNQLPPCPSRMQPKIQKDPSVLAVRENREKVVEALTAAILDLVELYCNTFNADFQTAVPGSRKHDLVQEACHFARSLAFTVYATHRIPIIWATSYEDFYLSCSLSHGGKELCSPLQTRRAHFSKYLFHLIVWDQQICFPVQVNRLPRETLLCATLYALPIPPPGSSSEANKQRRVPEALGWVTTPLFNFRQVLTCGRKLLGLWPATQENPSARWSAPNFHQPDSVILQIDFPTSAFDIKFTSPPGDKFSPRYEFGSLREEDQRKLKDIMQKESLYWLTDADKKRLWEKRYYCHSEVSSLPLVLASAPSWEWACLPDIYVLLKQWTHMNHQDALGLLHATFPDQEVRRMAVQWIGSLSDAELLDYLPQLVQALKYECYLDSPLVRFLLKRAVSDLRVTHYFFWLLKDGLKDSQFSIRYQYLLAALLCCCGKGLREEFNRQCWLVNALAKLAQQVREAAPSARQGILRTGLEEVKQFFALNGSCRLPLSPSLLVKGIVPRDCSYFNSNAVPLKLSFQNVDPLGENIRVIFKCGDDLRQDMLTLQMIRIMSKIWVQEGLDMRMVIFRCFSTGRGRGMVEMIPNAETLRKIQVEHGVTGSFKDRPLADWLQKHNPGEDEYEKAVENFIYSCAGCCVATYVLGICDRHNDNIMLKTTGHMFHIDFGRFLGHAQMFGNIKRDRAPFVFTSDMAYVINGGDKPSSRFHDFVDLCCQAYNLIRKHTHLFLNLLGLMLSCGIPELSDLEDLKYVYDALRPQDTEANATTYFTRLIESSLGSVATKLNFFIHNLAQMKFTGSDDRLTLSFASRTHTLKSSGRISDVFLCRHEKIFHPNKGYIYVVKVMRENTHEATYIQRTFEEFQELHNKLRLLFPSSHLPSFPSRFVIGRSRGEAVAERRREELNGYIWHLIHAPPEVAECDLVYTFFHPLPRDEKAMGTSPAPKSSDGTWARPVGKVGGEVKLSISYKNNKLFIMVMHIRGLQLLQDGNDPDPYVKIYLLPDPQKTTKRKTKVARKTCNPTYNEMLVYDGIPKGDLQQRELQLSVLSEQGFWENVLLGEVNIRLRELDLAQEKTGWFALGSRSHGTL
How it was run: as §1

ULK1 = ULK1 (Homo sapiens, UniProt O75385)
How it was run: as §1

ALK(L1196M) = ALK(L1196M) (Homo sapiens, UniProt Q9UM73, L1196M)
Sequence of ALK(L1196M) (Q9UM73 whole entry L1196M): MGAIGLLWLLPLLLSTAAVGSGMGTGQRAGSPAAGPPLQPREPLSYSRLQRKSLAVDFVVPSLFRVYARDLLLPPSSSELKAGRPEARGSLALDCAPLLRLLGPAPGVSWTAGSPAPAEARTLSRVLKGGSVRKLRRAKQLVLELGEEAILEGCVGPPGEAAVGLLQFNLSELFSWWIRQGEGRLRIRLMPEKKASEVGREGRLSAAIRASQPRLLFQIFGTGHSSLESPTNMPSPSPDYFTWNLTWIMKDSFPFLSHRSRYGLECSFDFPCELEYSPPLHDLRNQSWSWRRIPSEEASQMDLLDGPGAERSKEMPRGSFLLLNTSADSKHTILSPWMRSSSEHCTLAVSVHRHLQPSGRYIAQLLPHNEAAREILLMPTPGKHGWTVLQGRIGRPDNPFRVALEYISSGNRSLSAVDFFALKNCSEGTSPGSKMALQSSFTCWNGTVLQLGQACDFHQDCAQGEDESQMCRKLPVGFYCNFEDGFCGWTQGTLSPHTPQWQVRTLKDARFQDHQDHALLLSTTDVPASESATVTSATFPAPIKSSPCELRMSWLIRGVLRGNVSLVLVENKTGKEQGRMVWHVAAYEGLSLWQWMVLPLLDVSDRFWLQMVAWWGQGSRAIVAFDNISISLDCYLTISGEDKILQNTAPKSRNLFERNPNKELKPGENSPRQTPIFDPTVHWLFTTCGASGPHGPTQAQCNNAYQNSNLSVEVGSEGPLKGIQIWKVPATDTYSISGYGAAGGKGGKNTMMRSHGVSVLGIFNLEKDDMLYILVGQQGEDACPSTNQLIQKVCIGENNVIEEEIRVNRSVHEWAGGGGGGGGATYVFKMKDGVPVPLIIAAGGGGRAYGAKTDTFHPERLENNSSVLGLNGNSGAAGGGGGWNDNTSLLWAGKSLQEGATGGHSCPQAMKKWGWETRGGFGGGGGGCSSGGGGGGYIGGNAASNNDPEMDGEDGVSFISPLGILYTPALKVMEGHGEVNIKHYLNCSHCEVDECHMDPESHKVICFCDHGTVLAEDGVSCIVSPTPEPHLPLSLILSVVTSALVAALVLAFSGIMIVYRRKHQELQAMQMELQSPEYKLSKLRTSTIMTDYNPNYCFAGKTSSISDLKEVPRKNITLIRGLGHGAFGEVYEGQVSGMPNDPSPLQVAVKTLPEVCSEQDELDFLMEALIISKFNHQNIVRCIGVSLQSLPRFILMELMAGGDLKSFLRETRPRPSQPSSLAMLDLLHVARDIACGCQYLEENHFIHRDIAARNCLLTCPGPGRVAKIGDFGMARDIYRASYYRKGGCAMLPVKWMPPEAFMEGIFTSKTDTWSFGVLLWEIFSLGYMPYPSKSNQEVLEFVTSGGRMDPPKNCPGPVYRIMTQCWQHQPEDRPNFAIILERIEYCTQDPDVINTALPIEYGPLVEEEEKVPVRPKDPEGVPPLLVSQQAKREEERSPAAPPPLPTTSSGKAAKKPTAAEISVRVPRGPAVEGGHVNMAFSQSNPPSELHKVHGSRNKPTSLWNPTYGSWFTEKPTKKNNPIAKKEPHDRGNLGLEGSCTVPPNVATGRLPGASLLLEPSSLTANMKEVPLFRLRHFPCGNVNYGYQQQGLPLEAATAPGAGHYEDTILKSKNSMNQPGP
How it was run: as §1

EGFR(L858R) = EGFR(L858R) (Homo sapiens, UniProt P00533, L858R)
How it was run: as §1

MKNK2 = MKNK2 (Homo sapiens, UniProt Q9HBH9)
Sequence of MKNK2 (Q9HBH9 whole entry): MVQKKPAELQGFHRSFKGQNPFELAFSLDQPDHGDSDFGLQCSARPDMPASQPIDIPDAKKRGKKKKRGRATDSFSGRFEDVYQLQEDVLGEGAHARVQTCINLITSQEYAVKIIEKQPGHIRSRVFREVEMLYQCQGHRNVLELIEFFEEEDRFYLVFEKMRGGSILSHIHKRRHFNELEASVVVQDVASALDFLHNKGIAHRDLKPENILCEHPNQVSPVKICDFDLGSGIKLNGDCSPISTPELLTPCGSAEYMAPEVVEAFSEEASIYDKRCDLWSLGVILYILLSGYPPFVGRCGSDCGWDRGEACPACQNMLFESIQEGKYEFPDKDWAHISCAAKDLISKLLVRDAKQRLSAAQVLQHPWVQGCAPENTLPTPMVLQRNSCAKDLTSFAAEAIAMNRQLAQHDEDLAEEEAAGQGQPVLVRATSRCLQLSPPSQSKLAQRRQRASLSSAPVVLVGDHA
How it was run: as §1

MAP3K4 = MAP3K4 (Homo sapiens, UniProt Q9Y6R4)
How it was run: as §1

DLK = molecular target: T4, DLK (Homo sapiens, UniProt Q12852)
T4 construct: gene MAP3K12
How it was run: as §1

GRK2 = GRK2 (Homo sapiens, UniProt P25098)
How it was run: as §1

NDR2 = molecular target: T5, NDR2 (Homo sapiens, UniProt Q9Y2H1)
T5 construct: gene STK38L
T5 sequence (Q9Y2H1 whole entry): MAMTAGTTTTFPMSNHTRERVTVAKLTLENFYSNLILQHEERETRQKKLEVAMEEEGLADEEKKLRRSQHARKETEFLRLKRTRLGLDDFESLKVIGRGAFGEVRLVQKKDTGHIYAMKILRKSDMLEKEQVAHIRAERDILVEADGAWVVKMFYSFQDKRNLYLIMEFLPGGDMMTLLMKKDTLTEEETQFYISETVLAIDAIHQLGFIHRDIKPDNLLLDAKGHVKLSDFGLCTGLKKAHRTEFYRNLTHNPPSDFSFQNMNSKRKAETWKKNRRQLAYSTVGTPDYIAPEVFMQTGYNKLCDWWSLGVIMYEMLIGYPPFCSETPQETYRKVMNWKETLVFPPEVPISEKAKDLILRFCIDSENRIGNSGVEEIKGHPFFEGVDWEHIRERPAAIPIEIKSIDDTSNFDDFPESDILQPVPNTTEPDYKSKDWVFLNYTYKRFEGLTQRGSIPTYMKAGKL
How it was run: as §1

EGFR = EGFR (Homo sapiens, UniProt P00533)
How it was run: as §1

MEK1 = molecular target: T6, MEK1 (Homo sapiens, UniProt Q02750)
T6 construct: gene MAP2K1
T6 sequence (Q02750 whole entry): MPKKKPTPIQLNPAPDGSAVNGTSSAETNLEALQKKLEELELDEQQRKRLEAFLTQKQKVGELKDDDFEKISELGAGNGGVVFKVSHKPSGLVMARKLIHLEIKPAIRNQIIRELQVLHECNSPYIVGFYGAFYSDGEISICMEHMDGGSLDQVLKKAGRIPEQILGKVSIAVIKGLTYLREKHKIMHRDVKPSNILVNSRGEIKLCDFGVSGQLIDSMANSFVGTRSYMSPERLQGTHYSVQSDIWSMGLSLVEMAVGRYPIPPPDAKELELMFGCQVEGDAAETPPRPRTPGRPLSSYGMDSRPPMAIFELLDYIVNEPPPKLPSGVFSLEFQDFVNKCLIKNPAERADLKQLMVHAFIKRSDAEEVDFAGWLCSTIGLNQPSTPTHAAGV
How it was run: as §1

TTK = TTK (Homo sapiens, UniProt P33981)
How it was run: as §1

TIE2 = molecular target: T7, TIE2 (Homo sapiens, UniProt Q02763)
T7 construct: gene TEK
How it was run: as §1

FLT3(D835H) = FLT3(D835H) (Homo sapiens, UniProt P36888, D835H)
How it was run: as §1

CLK3 = CLK3 (Homo sapiens, UniProt P49761)
How it was run: as §1

Sequence of LYN (P07948 whole entry): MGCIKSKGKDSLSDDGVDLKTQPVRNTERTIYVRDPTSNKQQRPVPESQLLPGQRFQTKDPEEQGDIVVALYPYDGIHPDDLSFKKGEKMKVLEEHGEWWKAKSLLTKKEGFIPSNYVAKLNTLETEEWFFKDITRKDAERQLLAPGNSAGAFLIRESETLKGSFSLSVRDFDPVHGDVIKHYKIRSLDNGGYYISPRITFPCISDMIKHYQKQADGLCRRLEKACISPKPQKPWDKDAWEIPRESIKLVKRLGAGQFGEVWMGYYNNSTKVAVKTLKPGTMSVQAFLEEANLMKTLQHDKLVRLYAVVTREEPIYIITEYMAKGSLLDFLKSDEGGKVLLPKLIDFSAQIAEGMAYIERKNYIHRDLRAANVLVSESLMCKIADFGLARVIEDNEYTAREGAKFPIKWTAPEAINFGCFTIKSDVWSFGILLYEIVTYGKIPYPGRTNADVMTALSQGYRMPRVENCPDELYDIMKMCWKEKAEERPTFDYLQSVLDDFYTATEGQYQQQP

remaining binding at 100 µM (LYN): 72%
remaining binding at 100 µM (RIOK2): 90%
remaining binding at 100 µM (WNK1): 86%
remaining binding at 100 µM (PIP5K2B): 100%
remaining binding at 100 µM (DMPK2): 83%
remaining binding at 100 µM (CTK): 75%
remaining binding at 100 µM (CAMK1D): 83%
remaining binding at 100 µM (PIK3C2B): 72%
remaining binding at 100 µM (ULK1): 100%
remaining binding at 100 µM (ALK(L1196M)): 71%
remaining binding at 100 µM (EGFR(L858R)): 85%
remaining binding at 100 µM (MKNK2): 82%
remaining binding at 100 µM (MAP3K4): 79%
remaining binding at 100 µM (DLK): 88%
remaining binding at 100 µM (GRK2): 58%
remaining binding at 100 µM (NDR2): 83%
remaining binding at 100 µM (EGFR): 79%
remaining binding at 100 µM (MEK1): 71%
remaining binding at 100 µM (TTK): 80%
remaining binding at 100 µM (TIE2): 84%
remaining binding at 100 µM (FLT3(D835H)): 92%
remaining binding at 100 µM (CLK3): 99%
Structure (SMILES): C=C(C)[C@H]1CC=C(C)C(=O)C1 [S-carvone]
